In series [1] the test system is microtubule network of MCF7 cells. Briefly: Immunofluorescence of microtubule network, MCF7. Type of series: cell-based, human. As to conditions: MCF7, 175 nM, 72 h, confocal microscopy. As for the experimental part:
MCF7, HeLa, and HT-29 cells were grown on round glass coverslips coated with poly-L-lysine (12 mm diameter). To reach appropriate cell confluence, coverslips were manipulated in 6-well plates (3 coverslips/well) seeding 3 ml/well of cells in the exponential growth phase at 2 × 10^4 cells/mL. After 24 h incubation, cells were treated with compound 25 at 175 nM and incubated for 72 h. Cells were washed with PBS, fixed with 4% formaldehyde in PBS for 10 min, permeabilized with 0.5% Triton X-100 (Boehringer Mannheim, Ingelheimam Rhein, Germany) in PBS for 10 min, and blocked with 10% BSA in PBS for 30 min. Then, coverslips were incubated with anti-α-tubulin mouse monoclonal antibody (diluted 1:200 in 3% BSA/PBS) (Sigma-Aldrich Co.) and anti-SQSTM1/p62 rabbit monoclonal antibody (diluted 1:100 in 3% BSA/PBS) (Abcam) for 1 h 30 min. After PBS washing, coverslips were incubated with fluorescent secondary antibodies Alexa Fluor 488 goat anti-mouse IgG and Alexa Fluor 594 anti-rabbit (both diluted 1:400 in 1% BSA/PBS) (Molecular Probes, Invitrogen, Thermo Fischer Scientific) for 1 h in darkness. […] Cells were analysed by confocal microscopy using a LEICA SP5 microscope DMI-6000V model coupled to a LEICA LAS AF software computer.

The test system of another series is HeLa cells. Put plainly: Apoptotic cell death quantification (Annexin V-FITC/PI), HeLa. To be noted: 72 h. It is filed as cell-based, human. As for the experimental part:
MCF7, HeLa, and HT-29 apoptotic cells were quantified using an Annexin V-FITC/PI apoptosis detection kit (Immunostep, Salamanca, Spain) according to the manufacturer’s guidelines. 1.5 ml/well of cells in the exponential growth phase at 2 × 10^4 cells/mL were seeded onto 12-well plates and left to attach overnight. After 24 h incubation, cells were treated with compound 25 at 87.5 or 175 nM. 72 h post-treatment, attached and floating cells of treated and untreated wells were collected, centrifuged, resuspended in the Annexin V binding buffer, and stained with Annexin V-FITC/PI. Cells were then incubated in darkness at room temperature for 15 min and a total of 30,000 cells were acquired and analysed using the BD Accuri™ C6 Plus Flow Cytometer and Software (version 1.0.264.21, BD Biosciences, San José, CA, USA), respectively. Compounds were dissolved in DMSO and the final solvent concentrations never exceeded 0.5% (v/v). Control wells included cells with 0.5% (v/v) DMSO.

The subject of series [2] is HEK293 (human embryonic kidney) cells. Briefly: Cell growth assay (XTT), non-tumorigenic HEK293. It is filed as cell-based. The procedure: The presence of mycoplasma was routinely checked with MycoAlert kit (Lonza-Cambrex) and only mycoplasma-free cells were used in the experiments. Tumour cell lines were kindly provided by Dr Faustino Mollinedo from Centro de Investigaciones Biológicas Margarita Salas, Madrid, Spain. To determine cell growth, cells in exponential growth phase were seeded (100 µL/well in 96-well plates) with appropriate cell concentration (1.5 × 10^4 cells/mL for MCF7, HeLa and HEK-293 and 3 × 10^4 cells/mL for HT-29) in complete DMEM or RPMI 1640 medium (see above) at 37 °C and 5% CO2 atmosphere. After 24 h incubation, to allow cells to attach to the plates, all compounds were added at 1 µM concentration (10 µL/well in 96-well plates) and the effect on the proliferation was evaluated 72 h post-treatment. Compounds showing antiproliferative effects at tested concentration were selected for IC50 calculation (50% inhibitory concentration compared to the untreated controls) from 10^−5 to 10^−10 M concentration. Nonlinear curves fitting the experimental data were carried out for each compound. […] A freshly prepared mixture solution of XTT labelling reagent with 0.02% (v/v) PMS (N-methyl-dibenzopyrazine methyl sulfate) electron coupling reagent was added to cells (50 µL/well in 96-well plates, the total volume of 160 µL/well) and were incubated during the corresponding time according to each cell line (4 h for MCF7 and HeLa and 6 h for HT-29 and HEK-293) in a humidified atmosphere (37 °C, 5% CO2). The absorbance of the formazan product generated was measured at a test wavelength of 450 nm using a multi-well plate reader (Ultra Evolution, Tecan, Männedorf, Suiza). Compounds were dissolved in DMSO and the final solvent concentrations never exceeded 0.5% (v/v). The control wells included treated cells with 0.5% (v/v) DMSO and the positive control. 10 µM verapamil was included as a control for the HT-29 cell line. Measurements were performed in triplicate, and each experiment was repeated three times.
In general terms: Tetrazolium dyes change colour on reduction, which living cells bring about.

Series [3] can be described thus: Aqueous solubility (saturation shake-flask, UV). It is filed as physicochemical. To be noted: aqueous buffer, thermodynamic from solid, pH 7.0 phosphate buffer, room temperature.

Converted amounts (≈) assume the structure as drawn.

Regarding `COc1ccc(S(=O)(=O)N(CC#N)c2cc(OC)c(Br)cc2OC)cc1` [Compound 25, N-(4-bromo-2,5-dimethoxyphenyl)-N-(cyanomethyl)-4-methoxybenzenesulphonamide], in series [1], the “Effect on microtubule network” value is on record as “disrupted the microtubule network”. In the series with HeLa cells (87.5 nM), the Early apoptosis came out at 52.3%, the Late apoptosis is 39.7%, the “Live (AnV–/PI–)” value was 6.5% and the Necrosis turned out to be 1.5%. Moreover, in the series on HeLa cells (175 nM), the Early apoptosis came to 47.5%, the Late apoptosis was 45.3%, the “Live (AnV–/PI–)” value is listed as 4.1% and the Necrosis is recorded as 3.1%. In the series on HeLa cells (87.5 and 175 nM), the Apoptotic profile is > 90%. Moreover, the “Selectivity index HEK293 vs HeLa and MCF7 tumour cells” value in series [2] fell in the range of 0.5 to 2 fold. The IC50 (in general, the concentration that inhibits the measured activity by half) in series [2] (Homo sapiens, HEK293, non-tumorigenic cell line, 72 h, XTT, read-out: Antiproliferative activity IC50 HEK293) was determined as 45 nM. Further, the solubility (usually how much of the substance goes into solution per volume) at 48 h in series [3] is 1 µg/mL (≈ 2.27 µM).

The values above are taken from paper PMC8205030, “Methoxy and bromo scans on N-(5-methoxyphenyl) methoxybenzenesulphonamides reveal potent cytotoxic compounds, especially against the human breast adenocarcinoma MCF7 cell line” (Journal of Enzyme Inhibition and Medicinal Chemistry, 2021).
